What follows are compounds tested on Plasmodium falciparum (assay: GSK_TCMDC: Inhibition of Plasmodium falciparum 3D7 in whole erythrocytes, using parasite LDH activity as an index of growth.). Conditions: Plasmodium falciparum, 3D7.
Format: functional, organism-based

| Compound | XC50 |
| --- | --- |
| CCN1CCC(N(Cc2ccc(-c3ccc(C(F)(F)F)cc3)cc2)C(=O)Cn2c(CCc3cccc(F)c3F)cc(=O)c3ccc(OCc4ccccc4)cc32)CC1 | 368 nM |
| CC(C)c1cc2c(ccc3nc(N)nc(N)c32)[nH]1 | 39 nM |
| COc1ccc(Oc2cnc(N)nc2N)c(C(C)C)c1 | 740 nM |
| Cc1cc(NCCC(=O)NCCOc2ccccc2)nc(NCc2ccccc2C)n1 | 867 nM |
| CN1CCN(CC(=O)Nc2cccc(-c3ccc(-c4nc5cc(F)ccc5[nH]4)cc3)c2)CC1 | 703 nM |
| CNCCNCc1cccc(-c2cccc(-c3nc4cc(C(F)(F)F)ccc4[nH]3)c2)c1 | 203 nM |
| O=C(Nc1ccc(Cn2nc(Cl)c(N3CCCNCC3)cc2=O)cc1)c1ccc(-c2ccccc2)cc1 | 713 nM |
| COc1ccc(C=NNc2nc(O)cc(-c3ccccc3)n2)cc1OC | 595 nM |
| COc1ccc(N2CCN(CCCCNC(=O)c3ccc(NC(=O)c4cc(C(F)(F)F)cc(C(F)(F)F)c4)cc3)CC2)c(OC)c1 | 153 nM |
| COc1cc(C)nc2ccc(NC(=O)c3ccc(C(=O)Nc4ccc5nc(C)cc(OC)c5c4)cc3)cc12 | 63.3 nM |
| CC(C)CNC(=O)c1cncc(-c2ccc(CNCCCc3ccccc3)cc2)c1 | 770 nM |
| COc1ccc(S(=O)(=O)NC2CCN(c3ccc(C(F)(F)F)cc3NC(=O)OCC(C)C)CC2)cc1 | 1220 nM |
| CCC1=C[C@@H]2CN(C1)Cc1c([nH]c3ccccc13)[C@@](C(=O)OC)(c1cc3c(cc1OC)N(C)[C@H]1[C@@](O)(C(=O)OC)[C@H](O)[C@]4(CC)C=CCN5CC[C@]31[C@@H]54)C2 | 866 nM |
| CC(CN1CCN(C)CC1)C(=O)Nc1ccc(-c2cccc(-c3nc4ccccc4[nH]3)c2)cc1 (stereo not given) | 566 nM |
| COc1cc(NC2CCCC(NCc3cn(S(=O)(=O)c4ccccc4)c4ccccc34)C2)nc2ccccc12 (stereo not given) | 248 nM |
| CCc1ccc(NC(=O)c2ccc(CN3CCCN(Cc4cccc(O)c4)CC3)cc2)cc1 | 673 nM |
| CCc1sc(-c2cc(Cl)ccc2OC)nc1C(=O)NCCN1CCCCC1 | 938 nM |
| COc1ccc(S(=O)(=O)Nc2cc(Br)cc3c2OCCC3)cc1N1CCN(C(=O)C(Cl)(Cl)Cl)CC1 | 871 nM |
| Cc1cc(=O)[nH]c(-n2nc(C)cc2NC(=O)C(c2ccccc2)c2ccccc2)n1 | 839 nM |
| Cc1nc(-c2ccc(-c3ccc(NC(=O)c4coc5ccc(N6CC(C)NC(C)C6)cc45)cc3)c(C)c2)no1 (stereo not given) | 925 nM |
| COc1cccc2c(NN=Cc3ccccc3Cl)cc(C)nc12 | 211 nM |
| COc1cc(Nc2nccc(N3CCC(NC(=O)c4cccc(NC(C)=O)c4)C3)n2)cc(OC)c1OC (stereo not given) | 828 nM |
| CCc1ccc(CN2CCC(CNC(=O)c3cc(-c4ccccc4F)cs3)C2)cc1 (stereo not given) | 899 nM |
| O=C(Nc1ccc(-c2ccccc2)cc1)Nc1cccc(Cn2ncc(N3CCNCC3)c(Cl)c2=O)c1 | 456 nM |

| Compound | XC50 |
| --- | --- |
| N#Cc1ccc(N2CCN(C(=O)c3cccc(-c4noc(C(F)(F)F)n4)c3)CC2)nc1 | 220 nM |
| O=C(/C=C/c1ccc(C(F)(F)F)cc1)N1CCc2cc3nccc(N4CCN5CCC[C@H]5C4)c3cc21 | 1510 nM |
| Cc1cc(CN2CC[C@H](NC(=O)c3ccc(Cl)c(Cl)c3)C2)ccc1OC1CCN(C)C1 (stereo not given in full) | 947 nM |
| Cc1cc(N2CCC(NS(=O)(=O)c3ccc(F)cc3)CC2)nc(Nc2cccc(C#N)c2)n1 | 651 nM |
| Cc1cccc2nc(-c3ccc(-c4cccc(CN5CCN(c6ccncc6)CC5)c4)s3)[nH]c12 | 126 nM |
| Cc1ccc(NC(=O)c2cccc(C#N)c2)cc1-c1ccc(C(=O)Nc2ccncc2)cc1 | 688 nM |
| O=C(c1cccc(Cl)c1)N1CCN(c2ccc([N+](=O)[O-])c(NC3CC3)c2)CC1 | 867 nM |
| O=C(/C=C/c1ccc(Cl)c(Cl)c1)NCC1CCCC(CN2CCC(c3c[nH]c4ccccc34)CC2)C1 (stereo not given) | 726 nM |
| CCNc1cc(C(=O)N[C@@H](Cc2ccc(F)c(F)c2)[C@H](O)CNC2CCCCC2)cc(N2CCCCS2(=O)=O)c1 | 117 nM |
| COc1ccc2nccc([C@@H](O)CN3CCC(NCc4nc5c(cc4F)SCC(=O)N5)C(F)C3)c2c1 (stereo not given in full) | 725 nM |
| O=C(N[C@@H](Cc1ccccc1)C(=O)NCc1cccc2ccccc12)c1ccc(O)c(-c2ccc(Cl)c(Cl)c2)c1 | 236 nM |
| COc1ccc2c(NN=Cc3ccncc3)ccnc2c1 | 956 nM |
| Cc1nc2cc(/C=C/C(=O)NC3CCC(CCN4CCc5ccc(C#N)cc5CC4)CC3)ccc2[nH]1 (stereo not given) | 1140 nM |
| O=C(Nc1cccc(-c2nn3ccccc3c2-c2ccnc(Nc3cccc(-c4cnco4)c3)n2)c1)C1CCCCC1 | 261 nM |
| CCCN(CCCCCCN(CCC)CCc1ccc(O)c(O)c1)CCc1ccc(O)cc1 | 1010 nM |
| Cc1cc(N(CCCN(C)C)Cc2cc(F)cc(F)c2)nc(Nc2ccc(Cl)cc2)n1 | 536 nM |
| COc1ccnc(NCCCNCc2cn(S(=O)(=O)c3ccccc3)c3ccccc23)c1 | 790 nM |
| Cc1cc(N(C)C)nc(Nc2ccc(NC(=O)c3ccccc3F)cc2)n1 | 1160 nM |
| COc1ccc(-c2nc(NC(=O)CSc3ccc([N+](=O)[O-])cc3)sc2C)cc1 | 136 nM |
| NC1CCCN(Cc2cccc(-c3cccc(-c4nc5ccccc5[nH]4)c3)c2)C1 (stereo not given) | 637 nM |
| Cc1nnc2c(NC(=O)NC(C)C)cc3cc(-c4ccc(CN5CCCCC5)cc4)ccc3n12 | 1180 nM |
| Cc1ccc(Cn2nc(Cl)c(N3CCNCC3)cc2=O)cc1NC(=O)Nc1ccc(-c2ccccc2)cc1 | 675 nM |
| NC(=O)c1ccccc1Nc1nc(Nc2cc[nH]n2)ncc1Cl | 958 nM |
| CCOP(=O)(OCC)c1ccc(OC)c(-c2ccc[nH]2)c1 | 1190 nM |

| Compound | XC50 |
| --- | --- |
| COc1ccc(CNC2CCN(C)CC2)cc1-c1ccc(S(=O)(=O)NC2CCC2)s1 | 733 nM |
| Cc1cc(NCCc2ccccc2)nc(N/C(=N/CC(=O)OC(C)(C)C)Nc2ccc(C(F)(F)F)cc2)n1 | 335 nM |
| Cc1cc(N)c2cc(NC(=O)c3ccc4ccccc4c3)ccc2n1 | 254 nM |
| CC(C)c1ccc(-c2noc(SCC(=O)N(C)c3ccc(F)cc3)n2)cc1 | 1170 nM |
| Cc1cc(CN2CC[C@H](NC(=O)c3ccc(Cl)c(Cl)c3)C2)ccc1OCCCN(C)C | 842 nM |
| O=C(NCCN1CCCC1)c1ccc(-c2cccc(-c3nc4cc(F)ccc4[nH]3)c2)cc1 | 774 nM |
| CCCCCCCc1c(C)[nH]c2ccc(F)cc2c1=O | 289 nM |
| Cc1nnsc1C(=O)Nc1cccc(-c2csc(-c3nc4ccccc4[nH]3)c2)c1 | 351 nM |
| Cn1c2ccccc2c2c3ccccc3c(CNC(CO)(CO)CO)cc21 | 518 nM |
| COc1ccc2c(c1)CCN(CCN1CCC(CNC(=O)c3ccc(-c4ccc(C#N)cc4)cc3)CC1)C2 | 617 nM |
| O=C(Nc1cccnc1)c1cn(-c2ccccc2)nc1-c1cccs1 | 869 nM |
| COc1ccc2nccc([C@@H](O)CN3CCC(NC(=O)c4cc5ccccc5[nH]4)CC3)c2c1 | 969 nM |
| COc1cccc(CNC(=O)c2cccc(-c3cccc(CN4CCC(N5CCCC5)CC4)c3)n2)c1 | 1030 nM |
| Cc1ccc(Nc2nc(C)cc(Nc3cccc(NS(C)(=O)=O)c3)n2)cc1 | 917 nM |
| O=C(Nc1ccc(-c2ccccc2)cc1)Nc1ccc2c(c1)CCNCC2 | 348 nM |
| O=C(/C=C/c1ccc(Cl)c(Cl)c1)NCc1ccc(CN2CCC(c3c[nH]c4ccccc34)CC2)cc1 | 711 nM |
| COc1ccc2nccc(N3CCC(SCCNCc4cc5c(cn4)OCCO5)C3)c2n1 (stereo not given) | 768 nM |
| FC(F)(F)c1ccc2c(C=Cc3ccncc3)c[nH]c2c1 | 707 nM |
| COc1cc(Nc2ccnc3ccc(C(F)(F)F)cc23)ccc1OCCCc1ccccc1 | 765 nM |
| Cc1cccc2nc(-c3ccc(-c4ccc(CN5CCCC(O)C5)cc4)s3)[nH]c12 (stereo not given) | 830 nM |
| CC(C)(C)OC(=O)Cn1cnc2cc(NC(=O)c3cc([N+](=O)[O-])cc([N+](=O)[O-])c3)ccc21 | 312 nM |
| CN1CC=C(c2c[nH]c3ccc(OC(=O)c4ccccc4)cc23)C1 | 800 nM |
| COc1ccc(Oc2ccccc2CNCC2CCN(CC3CCCCC3)CC2)cc1 | 904 nM |
| O=S(=O)(Nc1ccc2nccc(N3CCNCC3)c2c1)c1ccc2c(Cl)cccc2c1 | 573 nM |

| Compound | XC50 |
| --- | --- |
| CN1Cc2ccc(NS(=O)(=O)c3ccc(-c4ccoc4)cc3)cc2C1 | 160 nM |
| N=C(N)Nc1nc(-c2cccc(NC(=O)NCCc3c[nH]c4ccc(OCc5ccccc5)cc34)c2)cs1 | 805 nM |
| CC(=O)c1ccc2cc(C(=O)NC3CCC(CCN4CCc5ccc(-c6noc(C)n6)cc5CC4)CC3)[nH]c2c1 (stereo not given) | 946 nM |
| CC[C@H](C)CNC(=O)c1cncc(-c2cccc(CN(C)C3CCN(C)CC3)c2)c1 | 785 nM |
| CCCn1c(O)nnc1SCC(=O)Nc1cc(Cl)ccc1Cl | 997 nM |
| CCCCCCCN(CCCCCCC)CCNc1cc(C)nc2ccccc12 | 339 nM |
| CCOC(=O)COc1cccc(CNc2ccc3nc(N)nc(N)c3c2)c1 | 408 nM |
| Brc1ccsc1-c1nc(NCCC(c2ccccc2)c2ccccc2)no1 | 1080 nM |
| O=C(NCCCc1ccccc1)c1csc(C2CCCN(C(=O)c3ccc(O)c(-c4cccc5ccccc45)c3)C2)n1 (stereo not given) | 967 nM |
| Cc1ccc2[nH]c3c(c2c1)CC(C(=O)NCCC(C)C)NC31CCN(Cc2ccccc2)CC1 (stereo not given) | 932 nM |
| Cc1cc(-c2cccc3c(NC(=O)N4CCc5cc6nccc(N7CCN8CCC[C@H]8C7)c6cc54)cccc23)cc(C)n1 | 485 nM |
| CC(Oc1ccc(Cl)cc1)C(=O)N(C)C1CCN(CCCCCNC(=O)/C=C/c2ccc(Cl)c(Cl)c2)CC1 (stereo not given) | 959 nM |
| Fc1cc(Cl)ccc1Nc1ccnc2cc(-c3ccc(CN4CCSCC4)o3)ccc12 | 782 nM |
| CCc1nnc2sc(-c3cccc(NC(=O)c4ccc(C)c([N+](=O)[O-])c4)c3)nn12 | 1410 nM |
| Cc1cc(NC(=O)c2ccsc2)ccc1OC1CCN(Cc2ccc(F)cc2)CC1 | 1220 nM |
| O=C(/C=C/c1ccc(Cl)c(Cl)c1)NCCCCCN1CCC(NC(=O)Nc2ccc(F)c(Cl)c2)CC1 | 619 nM |
| COc1ccc2ncc(F)c(CCN3CC[C@H](NCc4cc(C#N)c5c(c4)OCCO5)[C@H](O)C3)c2c1 | 885 nM |
| O=C(Nc1cccc(CN2CCCN(Cc3cccc(Cl)c3)CC2)c1)c1ccc(Cl)c(Cl)c1 | 992 nM |
| Cc1ccnc2nc(C(=O)Nc3cc(C(F)(F)F)ccc3N3CCCCC3)nn12 | 61.8 nM |
| Cc1ccc(S(=O)(=O)c2nc(S(=O)(=O)c3ccccc3)sc2NCC2CCCO2)cc1 (stereo not given) | 1020 nM |
| CC(C)c1ccc(CN2CCC(CNC(=O)c3cc(-c4cccc(C(F)(F)F)c4)cs3)C2)cc1 (stereo not given) | 914 nM |
| O=S(=O)(Nc1cccc(CCN2CCC(N3CCCCC3)CC2)c1)c1ccc(Cl)cc1 | 916 nM |
| COc1ccccc1CN1CCC(NC(=O)c2ccc(-c3cccc(Cl)c3)s2)CC1 | 1420 nM |

From ChEMBL document CHEMBL1157539, “Thousands of chemical starting points for antimalarial lead identification” (Nature, 2010)
